Reference: patent publication US8741897B2, “Glucocorticoid mimetics, methods of making them, pharmaceutical compositions and uses thereof” (Boehringer Ingelheim Pharmaceuticals Inc., priority 2003, dated 2014)

Columns and labels:
[1] = molecular target: T1, human glucocorticoid receptor (GR) complex (Homo sapiens, UniProt P04150); assay: Glucocorticoid receptor competitive binding assay (fluorescence polarization, TAMRA-labeled dexamethasone probe); conditions: compounds of Formula (IA)
T1 construct: made in house; host or cells: insect expression system (baculovirus lysate)
T1 sequence (P04150 1-777): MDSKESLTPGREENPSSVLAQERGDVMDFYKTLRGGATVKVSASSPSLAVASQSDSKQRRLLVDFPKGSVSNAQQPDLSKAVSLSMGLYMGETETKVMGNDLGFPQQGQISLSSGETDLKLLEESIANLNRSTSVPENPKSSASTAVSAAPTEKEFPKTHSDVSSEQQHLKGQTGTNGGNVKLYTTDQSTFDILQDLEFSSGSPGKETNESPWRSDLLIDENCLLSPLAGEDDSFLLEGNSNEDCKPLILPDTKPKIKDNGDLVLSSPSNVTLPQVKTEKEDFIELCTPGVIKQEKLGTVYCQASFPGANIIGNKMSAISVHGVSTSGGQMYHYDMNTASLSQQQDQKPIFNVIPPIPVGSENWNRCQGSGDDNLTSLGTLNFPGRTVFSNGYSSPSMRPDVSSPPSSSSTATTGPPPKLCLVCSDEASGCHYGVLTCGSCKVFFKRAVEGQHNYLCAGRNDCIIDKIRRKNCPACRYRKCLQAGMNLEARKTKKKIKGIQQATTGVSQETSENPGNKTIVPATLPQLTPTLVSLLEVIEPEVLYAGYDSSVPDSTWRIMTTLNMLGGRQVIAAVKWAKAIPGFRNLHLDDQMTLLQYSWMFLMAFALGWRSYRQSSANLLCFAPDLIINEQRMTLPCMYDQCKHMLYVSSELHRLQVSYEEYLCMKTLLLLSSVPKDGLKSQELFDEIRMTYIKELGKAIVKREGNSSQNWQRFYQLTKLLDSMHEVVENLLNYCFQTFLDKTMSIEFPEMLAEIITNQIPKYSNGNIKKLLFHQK
Protocol: Compounds of the invention were evaluated for binding to the steroid receptor by a fluorescence polarization competitive binding assay. Detailed descriptions for preparation of recombinant glucocorticoid receptor (GR) complex used in the assay is described in U.S. patent application Pub.
A. Glucocorticoid Receptor Competitive Binding Assay
Step 1. Characterization of the Fluorescent Probe
The wavelengths for maximum excitation and emission of the fluorescent probe should first be measured. An example of such a probe is rhodamine (TAMRA)-labeled dexamethasone.
The affinity of the probe for the steroid receptor was then determined in a titration experiment. The fluorescence polarization value of the probe in assay buffer was measured on an SLM-8100 fluorometer using the excitation and emission maximum values described above. Aliquots of expression vector lysate were added and fluorescence polarization was measured after each addition until no further change in polarization value was observed. Non-linear least squares regression analysis was used to calculate the dissociation constant of the probe from the polarization values obtained for lysate binding to the probe.
Step 2. Screening for Inhibitors of Probe Binding
This assay uses fluorescence polarization (FP) to quantitate the ability of test compounds to compete with tetramethyl rhodamine (TAMRA)-labeled dexamethasone for binding to a human glucocorticoid receptor (GR) complex prepared from an insect expression system. The assay buffer was: 10 mM TES, 50 mM KCl, 20 mM Na2MoO4.2H2O, 1.5 mM EDTA, 0.04% w/v CHAPS, 10% v/v glycerol, 1 mM dithiothreitol, pH 7.4. Test compounds were dissolved to 1 mM in neat DMSO and then further diluted to 10× assay concentration in assay buffer supplemented with 10% v/v DMSO. Test compounds were serially diluted at 10× assay concentrations in 10% DMSO-containing buffer in 96-well polypropylene plates. Binding reaction mixtures were prepared in 96-well black Dynex microtiter plates by sequential addition of the following assay components to each well: 15 μL of 10× test compound solution, 85 μL of GR-containing baculovirus lysate diluted 1:170 in assay buffer, and 50 μL of 15 nM TAMRA-labeled dexamethasone. Positive controls were reaction mixtures containing no test compound; negative controls (blanks) were reaction mixtures containing 0.7 μM to 2 μM dexamethasone. […] IC50 values were determined by iterative non-linear curve fitting of the FP signal data to a 4-parameter logistic equation.

[2] = system: glucocorticoid receptor function; assay: one or more of the above assays (GR binding and glucocorticoid receptor cell assays: aromatase, IL-6, TAT, MMTV-Luc, IL-8, ICAM-Luc); format: cell-based; conditions: assay not specified per compound

Row | SMILES | activity in the GR binding assay [1] | activity as agonists of the glucocorticoid receptor function in one or more of the above assays [2]
1 | CN(C)C(=O)c1ccc2[nH]c(CC(O)(CC(C)(C)c3cc(Br)cc4c3OCC4)C(F)(F)F)cc2c1 (stereo not shown) [2-[4-(5-Bromo-2,3-dihydrobenzofuran-7-yl)-2-hydroxy-4-methyl-2-trifluoromethylpentyl]-1H-indole-5-carboxylic acid dimethylamide] | potent activity | potent agonists
2 | CC(C)(CC(O)(Cc1cc2cnccc2[nH]1)C(F)(F)F)c1cc(Cl)cc2c1OCC2 (stereo not shown) [4-(5-Chloro-2,3-dihydrobenzofuran-7-yl)-1,1,1-trifluoro-4-methyl-2-(1H-pyrrolo[3,2-c]pyridin-2-ylmethyl)pentan-2-ol] | potent activity | potent agonists
3 | Cc1cc(CC(O)(CC(C)(C)c2cc(F)ccc2O)C(F)(F)F)c2ccccc2n1 (stereo not shown) [4-Fluoro-2-[4,4,4-trifluoro-3-hydroxy-1,1-dimethyl-3-(2-methylquinolin-4-ylmethyl)butyl]phenol] | potent activity | potent agonists
4 | CC(C)(CC(O)(Cc1ccnc2ccccc12)C(F)(F)F)c1cc(F)ccc1O (stereo not shown) [4-Fluoro-2-(4,4,4-trifluoro-3-hydroxy-1,1-dimethyl-3-quinolin-4-ylmethylbutyl)phenol] | potent activity | potent agonists
5 | COc1ccc(F)cc1C(C)(C)CC(O)(Cc1cc2ncncc2[nH]1)C(F)(F)F (stereo not shown) [1,1,1-Trifluoro-4-(5-fluoro-2-methoxyphenyl)-4-methyl-2-(5H-pyrrolo[3,2-d]pyrimidin-6-ylmethyl)pentan-2-ol] | potent activity | potent agonists
6 | CC(C)c1ccc(O)c(C(C)(C)CC(O)(Cc2[nH]c3ccccc3c2C#N)C(F)(F)F)c1 (stereo not shown) [2-[2-Hydroxy-4-(2-hydroxy-5-isopropylphenyl)-4-methyl-2-trifluoromethylpentyl]-1H-indole-3-carbonitrile] | potent activity | potent agonists
7 | Cc1cc(CC(O)(CC(C)(C)c2ccc(F)cc2)C(F)(F)F)c2ccccc2n1 (stereo not shown) [1,1,1-Trifluoro-4-(4-fluorophenyl)-4-methyl-2-(2-methylquinolin-4-ylmethyl)pentan-2-ol] | potent activity | potent agonists
8 | CC(C)(CC(O)(Cc1ccnc2ccccc12)C(F)(F)F)c1ccc(F)cc1 (stereo not shown) [1,1,1-Trifluoro-4-(4-fluorophenyl)-4-methyl-2-quinolin-4-ylmethylpentan-2-ol] | potent activity | potent agonists
9 | COc1ccc(F)cc1C(C)(C)CC(O)(Cc1cc2c(C)nc(C)nc2[nH]1)C(F)(F)F (stereo not shown) [2-(2,4-Dimethyl-7H-pyrrolo[2,3-d]pyrimidin-6-ylmethyl)-1,1,1-trifluoro-4-(5-fluoro-2-methoxyphenyl)-4-methylpentan-2-ol] | potent activity | potent agonists
10 | CC(C)(CC(O)(Cc1cc2ccccc2[nH]1)C(F)(F)F)c1ccccn1 (stereo not shown) [1,1,1-Trifluoro-2-(1H-indol-2-ylmethyl)-4-methyl-4-pyridin-2-ylpentan-2-ol] | potent activity | potent agonists
11 | COc1ccc(S(C)(=O)=O)cc1C(C)(C)CC(O)(Cc1[nH]c2ccccc2c1C#N)C(F)(F)F (stereo not shown) [2-[2-Hydroxy-4-(5-methanesulfonyl-2-methoxyphenyl)-4-methyl-2-trifluoromethylpentyl]-1H-indole-3-carbonitrile] | potent activity | potent agonists
12 | Cc1cccc(C(C)(C)CC(O)(Cc2cc(C)nc(C)c2)C(F)(F)F)c1 (stereo not shown) [2-(2,6-Dimethylpyridin-4-ylmethyl)-1,1,1-trifluoro-4-methyl-4-m-tolylpentan-2-ol] | potent activity | potent agonists
13 | CC(C)(CC(O)(Cc1cc2cc(C(=O)N3CCOCC3)ccc2[nH]1)C(F)(F)F)c1cc(Br)cc2c1OCC2 (stereo not shown) [{2-[4-(5-Bromo-2,3-dihydrobenzofuran-7-yl)-2-hydroxy-4-methyl-2-trifluoromethylpentyl]-1H-indol-5-yl}morpholin-4-ylmethanone] | potent activity | potent agonists
14 | CC(C)(CC(O)(Cc1ccnc(Br)c1)C(F)(F)F)c1cc(F)ccc1O (stereo not shown) [2-[3-(2-Bromopyridin-4-ylmethyl)-4,4,4-trifluoro-3-hydroxy-1,1-dimethylbutyl]-4-fluorophenol] | potent activity | potent agonists
15 | COc1ccc(F)cc1C(C)(C)CC(O)(Cc1ccnc2c(C)cc(C)cc12)C(F)(F)F (stereo not shown) [2-(6,8-Dimethylquinolin-4-ylmethyl)-1,1,1-trifluoro-4-(5-fluoro-2-methoxyphenyl)-4-methylpentan-2-ol] | potent activity | potent agonists
16 | Cc1ccc(F)cc1C(C)(C)CC(O)(Cn1ccc2ncccc21)C(F)(F)F (stereo not shown) [1,1,1-Trifluoro-4-(5-fluoro-2-methylphenyl)-4-methyl-2-pyrrolo[3,2-b]pyridin-1-ylmethylpentan-2-ol] | potent activity | potent agonists
17 | Cc1ccc(F)cc1C(C)(C)CC(O)(Cc1[nH]c2cnccc2c1C)C(F)(F)F (stereo not shown) [1,1,1-Trifluoro-4-(5-fluoro-2-methylphenyl)-4-methyl-2-(3-methyl-1H-pyrrolo[2,3-c]pyridin-2-ylmethyl)pentan-2-ol] | potent activity | potent agonists
18 | Cc1ccc(F)cc1C(C)(C)CC(O)(Cc1cc2cnccc2[nH]1)C(F)(F)F (stereo not shown) [1,1,1-Trifluoro-4-(5-fluoro-2-methylphenyl)-4-methyl-2-(1H-pyrrolo[3,2-c]pyridin-2-ylmethyl)pentan-2-ol] | potent activity | potent agonists
19 | Cc1cc(C#N)cc2[nH]c(CC(O)(CC(C)(C)c3ccc(F)cc3O)C(F)(F)F)cc12 (stereo not shown) [2-[4-(4-Fluoro-2-hydroxyphenyl)-2-hydroxy-4-methyl-2-trifluoromethylpentyl]-4-methyl-1H-indole-6-carbonitrile] | potent activity | potent agonists
20 | CC(C)(CC(O)(Cc1cc2ccccc2[nH]1)C(F)(F)F)c1ccc(F)cc1 (stereo not shown) [1,1,1-Trifluoro-4-(4-fluorophenyl)-2-(1H-indol-2-ylmethyl)-4-methylpentan-2-ol] | potent activity | potent agonists
